Experiment: logP determination by HPLC on reversed-phase column, acidic range
Format: physicochemical
Details: HPLC reversed-phase column (C 18), 43° C., acidic range: 0.1% aqueous phosphoric acid, acetonitrile; marked a)
Source text: (a) Mobile phases for the determination in the acidic range: 0.1% aqueous phosphoric acid, acetonitrile; linear gradient from 10% acetonitrile to 90% acetonitrile—the corresponding measurement results in Table 1 are marked ^a).
In the case of `Cc1nn(C)c(O)c1C(=O)c1ccc(Cl)c(NC(=O)N2CCCO2)c1Cl` [Example 185], the logP is reported as “(I-2) logP = 1.10^a)”. For `CCn1nc(C)c(C(=O)c2ccc(Cl)c(NC(=O)N3CCCO3)c2Cl)c1O` [Example 186], the logP was “(I-2) logP = 1.31^a)”.

Same assay, conditions: marked a): acidic range, 0.1% aqueous phosphoric acid/acetonitrile gradient, reversed-phase C 18 HPLC, 43° C.
With `CCn1ncc(C(=O)c2ccc(C(F)(F)F)cc2NC(=O)N(C)OC)c1O` [Example 7] the logP was “(I-1) logP = 2.93^a)”. For `CON(C)C(=O)Nc1cc(C(F)(F)F)ccc1C(=O)c1cnn(C)c1O` [Example 8], the logP was “(I-1) logP = 2.50^a)”. In the case of `CN1CCCN(C(=O)Nc2c(Cl)ccc(C(=O)c3cnn(C)c3O)c2Cl)C1=O` [Example 9], the logP is reported as “(I-2) logP = 1.55^a)”. With `Cn1ncc(C(=O)c2ccc(Cl)c(NC(=O)N3CCOCC3)c2Cl)c1O` [Example 10] the logP was “(I-2) logP = 0.82^a)”. For `CCn1ncc(C(=O)c2ccc(C(F)(F)F)cc2NC(=O)N2CCN(C)C2=O)c1O` [Example 11], the logP was “(I-1) logP = 2.42^a)”. For `CCN1CCN(C(=O)Nc2c(Cl)ccc(C(=O)c3cnn(C)c3O)c2Cl)C1=O` [Example 12], the logP was “(I-2) logP = 1.63^a)”. With `CCN1CCN(C(=O)Nc2c(Cl)ccc(C(=O)c3cnn(CC)c3O)c2Cl)C1=O` [Example 13] the logP was “(I-2) logP = 1.86^a)”. For `CCn1ncc(C(=O)c2ccc(Cl)c(NC(=O)NN3CCOCC3)c2Cl)c1O` [Example 14], the logP was “(I-2) logP = 1.25^a)”. With `Cn1ncc(C(=O)c2ccc(Cl)c(NC(=O)NN3CCOCC3)c2Cl)c1O` [Example 15] the logP was “(I-2) logP = 1.03^a)”. In the case of `Cn1ncc(C(=O)c2ccc(Cl)c(NC(=O)NN3CCCC3)c2Cl)c1O` [Example 16], the logP is reported as “(I-2) logP = 1.17^a)”. In the case of `CN1CCN(C(=O)Nc2cc(C(F)(F)F)ccc2C(=O)c2cnn(C)c2O)C1=O` [Example 17], the logP is reported as “(I-1) logP = 2.12^a)”. With `CCN1CCCN(C(=O)Nc2c(Cl)ccc(C(=O)c3cnn(CC)c3O)c2Cl)C1=O` [Example 18] the logP was “(I-2) logP = 2.11^a)”. With `CCN1CCCN(C(=O)Nc2c(Cl)ccc(C(=O)c3cnn(C)c3O)c2Cl)C1=O` [Example 19] the logP was “(I-2) logP = 1.83^a)”. With `Cn1ncc(C(=O)c2ccc(Cl)c(NC(=O)NC3CC3)c2Cl)c1O` [Example 21] the logP was “(I-2) logP = 0.99^a)”. In the case of `Cn1ncc(C(=O)c2ccc(Cl)c(NC(=O)N3CCCC3)c2Cl)c1O` [Example 24], the logP is reported as “(I-2) logP = 1.18^a)”. For `CC(C)N1CCCN(C(=O)Nc2c(Cl)ccc(C(=O)c3cnn(C)c3O)c2Cl)C1=O` [Example 33], the logP was “(I-2) logP = 2.11^a)”. For `Cn1ncc(C(=O)c2ccc(Cl)c(NC(=O)NCC3CCCO3)c2Cl)c1O` (stereo not drawn) [Example 41], the logP was “(I-2) logP = 1.10^a)”. For `Cn1ncc(C(=O)c2ccc(Cl)c(NC(=O)Nc3nnc(C(F)(F)F)s3)c2Cl)c1O` [Example 47], the logP was “(I-2) logP = 1.99^a)”. With `CCn1ncc(C(=O)c2ccc(Cl)c(N(C)C(=O)N3CCN(C)C3=O)c2Cl)c1O` [Example 99] the logP was “(I-2) logP = 1.40^a)”. In the case of `CCn1ncc(C(=O)c2ccc(Cl)c(NC(=O)NN3CCCC3)c2Cl)c1O` [Example 100], the logP is reported as “(I-2) logP = 1.42^a)”. In the case of `CCn1ncc(C(=O)c2ccc(Cl)c(NC(=O)N3CCCN(C(C)C)C3=O)c2Cl)c1O` [Example 101], the logP is reported as “(I-2) logP = 2.42^a)”. With `CCn1ncc(C(=O)c2ccc(Cl)c(NC(=O)N3CCCN(C4CCCCC4)C3=O)c2Cl)c1O` [Example 102] the logP was “(I-2) logP = 3.30^a)”. For `CCn1ncc(C(=O)c2ccc(C(F)(F)F)cc2N(C)C(=O)N2CCN(C)C2=O)c1O` [Example 103], the logP was “(I-1) logP = 1.78^a)”. In the case of `CCn1ncc(C(=O)c2ccc(Cl)c(NC(=O)NC3CC3)c2Cl)c1O` [Example 104], the logP is reported as “(I-2) logP = 1.25^a)”. In the case of `CCn1ncc(C(=O)c2ccc(Cl)c(NC(=O)NCC3CCCO3)c2Cl)c1O` (stereo not drawn) [Example 105], the logP is reported as “(I-2) logP = 1.33^a)”. In the case of `CCn1ncc(C(=O)c2ccc(Cl)c(NC(=O)N3CCCCC3)c2Cl)c1O` [Example 106], the logP is reported as “(I-2) logP = 1.75^a)”. With `Cn1ncc(C(=O)c2ccc(Cl)c(NC(=O)N3CCCCC3)c2Cl)c1O` [Example 107] the logP was “(I-2) logP = 1.50^a)”. In the case of `CCn1ncc(C(=O)c2ccc(Cl)c(NC(=O)NOC)c2Cl)c1O` [Example 108], the logP is reported as “(I-2) logP = 1.06^a)”. With `CONC(=O)Nc1c(Cl)ccc(C(=O)c2cnn(C)c2O)c1Cl` [Example 109] the logP was “(I-2) logP = 0.72^a)”. For `CCn1ncc(C(=O)c2ccc(Cl)c(NC(=O)N3CCCC3)c2Cl)c1O` [Example 110], the logP was “(I-2) logP = 1.52^a)”. For `CCn1ncc(C(=O)c2ccc(NC(=O)N3CCN(C)C3=O)cc2OC)c1O` [Example 111], the logP was “(I-3) logP = 1.74^a)”. With `CCONC(=O)Nc1c(Cl)ccc(C(=O)c2cnn(C)c2O)c1Cl` [Example 127] the logP was “(I-2) logP = 1.07^a)”. With `CCONC(=O)Nc1c(Cl)ccc(C(=O)c2cnn(CC)c2O)c1Cl` [Example 128] the logP was “(I-2) logP = 1.33^a)”. With `CCn1ncc(C(=O)c2ccc(Cl)c(NC(=O)C3=NOCC3)c2Cl)c1O` [Example 148] the logP was “(I-2) logP = 1.45^a)”. In the case of `Cn1ncc(C(=O)c2ccc(Cl)c(NC(=O)C3=NOCC3)c2Cl)c1O` [Example 149], the logP is reported as “(I-2) logP = 1.18^a)”. With `CCn1ncc(C(=O)c2ccc(Cl)c(NC(=O)c3ccco3)c2Cl)c1O` [Example 156] the logP was “(I-2) logP = 1.54^a)”. In the case of `Cn1ncc(C(=O)c2ccc(Cl)c(NC(=O)N3CCCO3)c2Cl)c1O` [Example 161], the logP is reported as “(I-2) logP = 1.11^a)”. For `CCn1ncc(C(=O)c2ccc(Cl)c(NC(=O)N3CCCO3)c2Cl)c1O` [Example 162], the logP was “(I-2) logP = 1.38^a)”. With `CCn1ncc(C(=O)c2ccc(Cl)c(N(C)C(=O)N3CCN(C)C3=O)c2Cl)c1O` [Example 171] the logP was “(I-2) logP = 2.88^a)”. In the case of `CCn1ncc(C(=O)c2ccc(Cl)c(NC(=O)NN3CCCCC3)c2Cl)c1O` [Example 172], the logP is reported as “(I-2) logP = 1.96^a)”. In the case of `Cn1ncc(C(=O)c2ccc(Cl)c(NC(=O)NN3CCCCC3)c2Cl)c1O` [Example 173], the logP is reported as “(I-2) logP = 1.70^a)”. With `CCn1ncc(C(=O)c2ccc(Cl)c(NC(=O)Nc3nnc(C)o3)c2Cl)c1O` [Example 174] the logP was “(I-2) logP = 1.20^a)”. With `CCn1ncc(C(=O)c2ccc(Cl)c(NC(=O)Nc3nnc(C(F)(F)F)s3)c2Cl)c1O` [Example 175] the logP was “(I-2) logP = 2.24^a)”. For `CCn1ncc(C(=O)c2ccc(Cl)c(NC(=O)N=c3sccn3C)c2Cl)c1O` [Example 176], the logP was “(I-2) logP = 1.39^a)”. In the case of `Cn1ncc(C(=O)c2ccc(Cl)c(NC(=O)N=c3sccn3C)c2Cl)c1O` [Example 177], the logP is reported as “(I-2) logP = 1.13^a)”. With `CCn1ccsc1=NC(=O)Nc1c(Cl)ccc(C(=O)c2cnn(C)c2O)c1Cl` [Example 178] the logP was “(I-2) logP = 1.43^a)”. For `CCn1ncc(C(=O)c2ccc(Cl)c(NC(=O)N=c3sccn3CC)c2Cl)c1O` [Example 179], the logP was “(I-2) logP = 1.72^a)”. For `CCn1ncc(C(=O)c2ccc(Cl)c(NC(=O)NCC(OC)OC)c2Cl)c1O` [Example 180], the logP was “(I-2) logP = 1.13^a)”. With `CCn1ncc(C(=O)c2ccc(Cl)c(NC(=O)N3CCCCO3)c2Cl)c1O` [Example 181] the logP was “(I-2) logP = 1.63^a)”. In the case of `Cn1ncc(C(=O)c2ccc(Cl)c(NC(=O)N3CCCCO3)c2Cl)c1O` [Example 182], the logP is reported as “(I-2) logP = 1.36^a)”. With `CCn1nc(C)c(C(=O)c2ccc(Cl)c(NC(=O)N3CCCCO3)c2Cl)c1O` [Example 183] the logP was “(I-2) logP = 1.53^a)”. In the case of `Cc1nn(C)c(O)c1C(=O)c1ccc(Cl)c(NC(=O)N2CCCCO2)c1Cl` [Example 184], the logP is reported as “(I-2) logP = 1.34^a)”.
